Test results reported in patent publication US5750754A, “Heterocyclic compounds” (Zeneca Limited, priority 1993, dated 1998).
Where a name gives a salt, the structure may show the parent alone. Read-outs that look alike come from different tables or passages of the source.

How the values were obtained:
[1] = biological target: T1, human, citrated, platelet-rich plasma (Homo sapiens, UniProt P05106+P08514); assay: Test (a): inhibition of ADP stimulated platelet aggregation (Born); assay type: cell-based; settings: ADP induced aggregation of human platelet-rich plasma
T1 construct: aggregating human, citrated, platelet-rich plasma; endogenous in cells; host or cells: human platelets in citrated platelet-rich plasma
How it was run: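 pA2 calculated by comparing ADP EC50-type (50% response) values in presence and absence of compound, averaged across concentrations (generally 10-^5 M to 10-^10 M). Aggregation (Born) induced by ADP in citrated human platelet-rich plasma, giving dose-response curves.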

[2] = biological target: T2, purified human platelet fibrinogen receptor (GPIIb/IIIa) (Homo sapiens, UniProt P05106+P08514); assay: Test (b): GPIIb/IIIa ELISA, inhibition of biotinylated fibrinogen binding; settings: purified human platelet GPIIb/IIIa, ELISA
T2 construct: is isolated from human platelet lysates; from tissue
How it was run: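 Inhibition of biotinylated fibrinogen ([…]) binding to immobilised human platelet fibrinogen receptor, purified by KYGRGDS peptide affinity chromatography, was measured after 2 h at 30 °C. Readout: streptavidin–biotin-HRP colour with TMB at […]; value expressed as pIC50.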

[3] = read-out: Test (a): pA2 value indicating potency of platelet aggregation inhibition (converted)
[4] = read-out: Test (b): pIC50 (-log(IC50)), 50% inhibition of biotinylated fibrinogen binding to GPIIb/IIIa (converted)

T2 sequence (P08514 32-887 limits assumed): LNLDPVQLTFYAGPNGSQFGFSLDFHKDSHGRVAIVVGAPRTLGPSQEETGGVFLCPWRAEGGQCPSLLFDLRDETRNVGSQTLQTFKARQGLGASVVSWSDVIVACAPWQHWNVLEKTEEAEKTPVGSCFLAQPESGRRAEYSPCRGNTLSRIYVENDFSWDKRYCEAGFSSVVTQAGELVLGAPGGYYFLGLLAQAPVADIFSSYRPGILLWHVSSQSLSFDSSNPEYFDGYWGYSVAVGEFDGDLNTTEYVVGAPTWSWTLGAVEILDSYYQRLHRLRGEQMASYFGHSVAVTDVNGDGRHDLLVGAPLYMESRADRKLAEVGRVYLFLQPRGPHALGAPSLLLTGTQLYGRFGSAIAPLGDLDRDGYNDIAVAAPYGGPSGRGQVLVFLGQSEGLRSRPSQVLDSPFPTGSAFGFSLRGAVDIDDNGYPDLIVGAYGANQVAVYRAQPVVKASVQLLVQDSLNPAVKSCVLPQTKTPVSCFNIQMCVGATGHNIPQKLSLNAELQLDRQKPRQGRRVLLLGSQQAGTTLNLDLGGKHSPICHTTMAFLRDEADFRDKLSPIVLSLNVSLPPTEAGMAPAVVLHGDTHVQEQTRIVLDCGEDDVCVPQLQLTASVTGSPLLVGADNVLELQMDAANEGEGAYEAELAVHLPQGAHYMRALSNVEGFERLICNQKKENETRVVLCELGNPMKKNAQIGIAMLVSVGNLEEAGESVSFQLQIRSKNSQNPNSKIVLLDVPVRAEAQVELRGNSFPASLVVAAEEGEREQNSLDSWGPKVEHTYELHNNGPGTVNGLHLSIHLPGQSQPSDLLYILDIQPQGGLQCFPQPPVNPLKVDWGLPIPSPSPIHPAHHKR
T2 sequence (P08514 891-1039 limits assumed): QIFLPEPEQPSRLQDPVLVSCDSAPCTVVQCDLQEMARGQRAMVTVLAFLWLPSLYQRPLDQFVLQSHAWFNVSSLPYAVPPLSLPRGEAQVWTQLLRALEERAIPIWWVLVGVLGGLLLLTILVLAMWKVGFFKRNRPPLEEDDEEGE
T2 sequence (P05106 27-788): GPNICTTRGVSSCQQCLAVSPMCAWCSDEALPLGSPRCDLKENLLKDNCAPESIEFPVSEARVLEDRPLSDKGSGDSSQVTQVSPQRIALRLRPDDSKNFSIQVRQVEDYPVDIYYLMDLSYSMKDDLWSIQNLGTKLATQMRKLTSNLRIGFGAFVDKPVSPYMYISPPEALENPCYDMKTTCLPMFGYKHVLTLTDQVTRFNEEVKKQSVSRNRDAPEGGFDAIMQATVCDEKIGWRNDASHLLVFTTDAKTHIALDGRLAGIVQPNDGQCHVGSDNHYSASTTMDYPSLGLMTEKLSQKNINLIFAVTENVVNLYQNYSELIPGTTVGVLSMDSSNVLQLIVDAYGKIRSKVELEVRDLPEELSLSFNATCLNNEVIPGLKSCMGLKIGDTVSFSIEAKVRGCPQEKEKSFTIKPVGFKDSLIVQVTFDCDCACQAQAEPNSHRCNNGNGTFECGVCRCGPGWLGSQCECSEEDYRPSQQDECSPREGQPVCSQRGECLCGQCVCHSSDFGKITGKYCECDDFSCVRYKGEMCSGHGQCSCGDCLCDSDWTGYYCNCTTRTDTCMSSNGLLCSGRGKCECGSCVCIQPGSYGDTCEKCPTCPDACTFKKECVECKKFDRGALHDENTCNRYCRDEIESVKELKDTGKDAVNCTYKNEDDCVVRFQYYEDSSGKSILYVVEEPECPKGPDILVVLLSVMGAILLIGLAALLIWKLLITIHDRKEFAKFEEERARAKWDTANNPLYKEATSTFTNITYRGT
T1 sequence (P08514 32-887 limits assumed): as the sequence (P08514 32-887 limits assumed) above
T1 sequence (P08514 891-1039 limits assumed): as the sequence (P08514 891-1039 limits assumed) above
T1 sequence (P05106 27-788): as the sequence (P05106 27-788) above

Compound	Kb [1, 3] [µM]	IC50 [2, 4] [nM]	Kb ([1]; Test (a): pA2 value indicating potency of platelet aggregation inhibition) [µM]	IC50 ([2]; Test (b): pIC50 (-log(IC50)), 50% inhibition of biotinylated fibrinogen binding to GPIIb/IIIa) [nM]
COC(=O)COc1ccc(NC(=O)C2CCN(c3ccncc3)CC2)cc1 [Example 163, Methyl 4-[[1-(4-pyridyl)piperidin-4-yl]carboxamido]phenoxyacetate, hydrochloride]	0.398	251	–	–
O=C(O)COc1ccc(NC(=O)C2CCN(c3ccncc3)CC2)cc1 [Example 164]	0.00794	39.8 to 63.1	–	–
COC(=O)COc1ccc(NC(=O)CC2CCN(c3ccncc3)CC2)cc1 [Example 165]	1.26	20000	–	–
O=C(O)COc1ccc(NC(=O)CC2CCN(c3ccncc3)CC2)cc1 [Example 166, 4-[2-[1-(4-Pyridyl)piperidin-4-yl]acetamido]phenoxyacetic acid dihydrochloride]	1.58	316	–	–
O=C(O)COc1ccc(C(=O)NC2CCN(c3ccncc3)CC2)cc1 [Example 167, 4-[[1-(4-Pyridyl)piperidin-4-yl]aminocarbonyl]phenoxyacetic acid dihydrochloride]	0.251	200	–	–
O=C(O)COc1ccc(C(=O)NCC2CCN(c3ccncc3)CC2)cc1 [Example 168]	0.794	398	–	–
O=C(O)Cc1ccc(NC(=O)C2CCN(c3ccncc3)CC2)cc1 [Example 169]	39.8	10000	–	–
CCCCS(=O)(=O)NCc1ccc(NC(=O)C2CCN(c3ccncc3)CC2)cc1 [Example 170, N-[4-[4-[1-(4-Pyridyl)piperidin-4-yl]carboxamidophenyl]-methyl]-1-butanesulphonamide]	15.8	> 100000	–	–
Cc1ccc(S(=O)(=O)NCc2ccc(NC(=O)C3CCN(c4ccncc4)CC3)cc2)cc1 [Example 171, N-[4[4-[1-(4-Pyridyl)piperidin-4yl]carboxyamidophenyl]methyl]-4-methylphenylsulphonamide]	6.31	> 100000	–	–
COC(=O)CNc1ccc(OC(=O)CC2CCN(c3ccncc3)CC2)cc1 [Example 172, 4-Methyloxycarbonylmethylamiophenyl [1-(4-pyridyl)piperidin4-yl]acetate]	6.31	50100	–	–
COC(=O)COc1ccc(C(=O)CC2CCN(c3ccncc3)CC2)cc1 [Example 173, Methyl 4-[2-[1-(4-pyridyl)piperidin-4-yl]acetyl]phenoxyacetate]	1.26	200	–	–
O=C(O)COc1ccc(C(=O)CC2CCN(c3ccncc3)CC2)cc1 [Example 174, 4-[2-[1-(4Pyridyl)piperidin-4-yl]acetyl]phenoxyacetic acid hydrochloride]	0.158 to 0.398	5.01 to 10	–	–
COC(=O)COc1ccc(C(=O)C(C)(C)N2CCN(c3ccncc3)CC2)cc1 [Example 175, Methyl 4-[2-[4-(4-pyridyl)piperazin-1yl]-2,2-dimethylacetyl]-phenoxyacetate]	1.26	631	–	–
CC(C)(C(=O)c1ccc(OCC(=O)O)cc1)N1CCN(c2ccncc2)CC1 [Example 176, 4-[2-[4-(4-Pyridyl)piperazin-1-yl]-2,2-dimethylacetyl]phenoxyacetic acid]	0.2	10	–	–
COC(=O)CCCc1ccc(CN2CCN(c3ccncc3)CC2)cc1 [Example 178, Methyl 4-[4-[4-(4-pyridyl)piperazin-1-yl]methylphenyl]butyrate]	3.16	1000	–	–
COC(=O)CCCCc1ccc(CN2CCN(c3ccncc3)CC2)cc1 [Example 179, Methyl 5-[4-[4-(4-pyridyl)piperazin-1-yl]methylphenyl]pentanoate]	15.8	3980	–	–

Compound	Kb [1, 3] [µM]	IC50 [2, 4] [nM]	Kb ([1]; Test (a): pA2 value indicating potency of platelet aggregation inhibition) [µM]	IC50 ([2]; Test (b): pIC50 (-log(IC50)), 50% inhibition of biotinylated fibrinogen binding to GPIIb/IIIa) [nM]
CS(=O)(=O)NCc1ccc(NC(=O)C2CCN(c3ccncc3)CC2)cc1 [Example 182]	7.94	20000	–	–
CS(=O)(=O)NCCc1ccc(NC(=O)C2CCN(c3ccncc3)CC2)cc1 [Example 183, N-[2-[4-[1-(4-Pyridyl)piperidin-4-yl]carboxamidophenyl]ethyl]methanesulphonamide]	31.6	> 100000	–	–
Cc1ccc(S(=O)(=O)NCCc2ccc(NC(=O)C3CCN(c4ccncc4)CC3)cc2)cc1 [Example 184, N-[2-[4-[1-(4-Pyridyl)piperidin-4-yl]carboxamidophenyl]ethyl]-4-methylphenylsulphonamide]	5.01	> 100000	–	–
CCCCS(=O)(=O)NCc1ccc(CCN2CCN(c3ccncc3)CC2)cc1 [Example 185, N-[4-[2-[4-(4-Pyridyl)piperazin-1-yl]ethyl]phenyl]methyl-1-butanesulphonamide]	3.98	15800	–	–
Cc1ccc(S(=O)(=O)NCc2ccc(CCN3CCN(c4ccncc4)CC3)cc2)cc1 [Example 186]	5.01	1260	–	–
CN(CC(=O)O)C(=O)c1ccc(N2CCN(c3ccncc3)CC2)cc1 [Example 189, N-[4-[(4,4Pyridyl)piperazin-1-yl]benzoyl]-N-methylglycine, trifluoroacetate]	–	–	1.26	316
COC(=O)[C@H](Cc1ccccc1)NC(=O)c1ccc(N2CCN(c3ccncc3)CC2)cc1 [Example 190, N[4-[(4-Pyridyl)piperazin-1-yl]benzoyl]-L-phenylalanine, methyl ester]	63.1	20000	–	–
O=C(N[C@@H](Cc1ccccc1)C(=O)O)c1ccc(N2CCN(c3ccncc3)CC2)cc1 [Example 191]	> 100	3980	–	–
O=C(O)C[C@H](NC(=O)c1ccc(N2CCN(c3ccncc3)CC2)cc1)C(=O)NCCc1ccccc1 [Example 192, (S)-3-[N-[2-Phenenthyl]carboxamido]-3-[4-[4-(4-pyridyl)piperazin-1-yl]]-benzamidopropionic acid]	> 100	251	–	–
O=C(O)C[C@@H](NC(=O)c1ccc(N2CCN(c3ccncc3)CC2)cc1)C(=O)NCCc1ccccc1 [Example 193]	39.8	251	–	–
O=C(O)C[C@H](NC(=O)CNC(=O)CN1CCN(c2ccncc2)CC1)C(=O)NCCc1ccccc1 [Example 194, (S)-3-[N-(2-Phenethyl)carboxamido]-3-[N-[N-2-[4-(4-pyridyl)piperazin-1-yl]acetyl]glycyl]aminopropionic acid, trifluoroacetate]	3.98	126	–	–
O=C(O)CCNC(=O)CCCN1CCN(c2ccncc2)CC1 [Example 195, 3-[4-[4-(4-Pyridyl)piperazin-1-yl]butyryl]aminopropionic acid, trifluoroacetate]	2.51	158	–	–
O=C(O)CCCCN1CCN(c2ccncc2)CC1 [Example 196, 5-[(4-Pyridyl)piperazin-1-yl]pentanoic acid, dihydrochloride salt]	100	6310	–	–
COC(=O)CCNC(=O)CCCCN1CCN(c2ccncc2)CC1 [Example 197, Methyl 3-[5-[4-(4-pyridyl)piperazine-1-yl]petanoyl]aminopropionate]	63.1	15800	–	–
O=C(O)CCNC(=O)CCCCN1CCN(c2ccncc2)CC1 [Example 198, 3-[5-[4-(4-Pyridyl)piperazine-1-yl]pentanoyl]aminopropionic acid]	0.794	20	–	–
O=C(O)CCCOc1ccc(N2CCN(c3ccncc3)CC2)cc1 [Example 200, 4-[4-[4-(4-Pyridyl)piperazine-1-yl]phenoxy]butyric acid, hydrochloride salt]	0.0126	3.98	–	–
